Tests used:
Assay in all cases: relative viability (nuclei count vs DMSO), 5 days (fraction); higher = more cells survive
MK-8033 + Linsitinib = compound: Cn1cc(-c2cnc3ccc4ccc(CS(=O)(=O)NCc5ccccn5)cc4c(=O)c3c2)cn1 [MK-8033] + C[C@]1(O)C[C@@H](c2nc(-c3ccc4ccc(-c5ccccc5)nc4c3)c3c(N)nccn32)C1 [Linsitinib] (partner 1 µM)
Method in brief: (§1)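 After 5 days of treatment, lung cancer cells in 1536-well plates were fixed and stained in a single step (final 0.05% Triton X-100, 1% formaldehyde, 1 ug/ml Hoechst) and their nuclei counted on 4× images. Treatment had been applied by pin tool the day after seeding as one drug alone or as a fixed anchor-drug dose with five library-drug doses (not always all listed) in √10 steps. Relative viability is the nuclei count of treated wells divided by that of vehicle wells, and values are medians of duplicate plates.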

RU-SKI 43 + Tozasertib = compound: CC[C@@H](C)CNCC(=O)N1CCC2=C([C@@H]1COC3=CC=CC(=C3)C)C=CS2 [RU-SKI 43] + Cc1cc(Nc2cc(N3CCN(C)CC3)nc(Sc3ccc(NC(=O)C4CC4)cc3)n2)n[nH]1 [Tozasertib] (partner 0.1 µM)
Method in brief: as §1

Irinotecan + OSI-027 = compound: CCc1c2c(nc3ccc(OC(=O)N4CCC(N5CCCCC5)CC4)cc13)-c1cc3c(c(=O)n1C2)COC(=O)[C@]3(O)CC [Irinotecan] + COc1cccc2cc(-c3nc([C@H]4CC[C@H](C(=O)O)CC4)n4ncnc(N)c34)[nH]c12 [OSI-027] (partner 0.5 µM)
Method in brief: as §1

MK-8033 + Decitabine = compound: Cn1cc(-c2cnc3ccc4ccc(CS(=O)(=O)NCc5ccccn5)cc4c(=O)c3c2)cn1 [MK-8033] + Nc1ncn([C@H]2C[C@H](O)[C@@H](CO)O2)c(=O)n1 [Decitabine] (partner 2 µM)
Method in brief: as §1

| Cell Line | relative viability (MK-8033 + Linsitinib; first compound 0.02 µM) | relative viability (MK-8033 + Linsitinib; first compound 0.06325 µM) | relative viability (MK-8033 + Linsitinib; first compound 0.2 µM) | relative viability (MK-8033 + Linsitinib; first compound 0.6325 µM) | relative viability (MK-8033 + Linsitinib; first compound 2 µM) | relative viability (RU-SKI 43 + Tozasertib; first compound 0.1 µM) | relative viability (RU-SKI 43 + Tozasertib; first compound 0.3162 µM) | relative viability (RU-SKI 43 + Tozasertib; first compound 1 µM) | relative viability (RU-SKI 43 + Tozasertib; first compound 3.162 µM) | relative viability (RU-SKI 43 + Tozasertib; first compound 10 µM) | relative viability (Irinotecan + OSI-027; first compound 2 µM) | relative viability (Irinotecan + OSI-027; first compound 6.325 µM) | relative viability (Irinotecan + OSI-027; first compound 20 µM) | relative viability (MK-8033 + Decitabine; first compound 0.02 µM) | relative viability (MK-8033 + Decitabine; first compound 0.06325 µM) | relative viability (MK-8033 + Decitabine; first compound 0.2 µM) | relative viability (MK-8033 + Decitabine; first compound 0.6325 µM) | relative viability (MK-8033 + Decitabine; first compound 2 µM) | relative viability (Irinotecan + OSI-027; first compound 0.6325 µM) |
| --- | --- | --- | --- | --- | --- | --- | --- | --- | --- | --- | --- | --- | --- | --- | --- | --- | --- | --- | --- |
| HCC-15 | 0.763 | 0.851 | 0.83 | 0.911 | 0.801 | 0.43 | 0.327 | 0.27 | 0.252 | 0.219 | 0.441 | 0.198 | 0.14 | 0.62 | 0.595 | 0.548 | 0.57 | 0.653 | – |
| NCI-H1666 | 0.872 | 0.754 | 0.83 | 0.66 | 0.81 | 0.495 | 0.596 | 0.571 | 0.525 | 0.435 | 0.809 | 0.544 | 0.26 | 0.792 | 0.746 | 0.728 | 0.766 | 0.736 | 0.792 |
| NCI-H460 | 0.903 | 0.702 | 0.686 | 0.85 | 0.684 | 0.545 | 0.4 | 0.544 | 0.504 | 0.274 | 0.494 | 0.12 | 0.043 | 0.525 | 0.439 | 0.446 | 0.451 | 0.475 | 0.347 |
| NCI-H2087 | 1.15 | 0.973 | 0.832 | 0.91 | 0.915 | 0.264 | 0.233 | 0.294 | 0.225 | 0.225 | 0.339 | 0.157 | 0.166 | 0.223 | 0.159 | 0.289 | 0.272 | 0.277 | 0.239 |
| EKVX | 1 | 1.01 | 0.856 | 1.05 | 0.994 | 0.354 | 0.379 | 0.374 | 0.372 | 0.31 | 0.625 | 0.49 | 0.162 | 0.34 | 0.285 | 0.388 | 0.343 | 0.399 | 0.664 |
| NCI-H1355 | 0.735 | 0.7 | 0.762 | 0.795 | 0.828 | 0.516 | 0.617 | 0.618 | 0.562 | 0.447 | 0.375 | 0.269 | 0.25 | 0.363 | 0.309 | 0.36 | 0.335 | 0.318 | – |
| NCI-H661 | 0.55 | 0.5 | 0.53 | 0.59 | 0.507 | 0.345 | 0.349 | 0.345 | 0.335 | 0.365 | 0.654 | 0.415 | 0.212 | 0.528 | 0.441 | 0.53 | 0.531 | 0.528 | 0.653 |
| PC-3 [JPC-3] | 0.947 | – | 0.863 | 0.961 | 0.987 | 0.815 | 0.953 | 1.02 | 0.959 | 0.773 | 0.785 | 0.397 | 0.344 | 0.803 | – | 0.748 | 0.845 | 0.804 | 0.46 |
| NCI-H2085 | 0.831 | 0.797 | 0.837 | 0.943 | 0.825 | 0.716 | 0.71 | 0.854 | 0.743 | 0.671 | 0.71 | 0.568 | 0.495 | 0.53 | 0.571 | 0.475 | 0.544 | 0.559 | 0.435 |
| NCI-H1993 | 0.773 | 0.766 | 0.73 | 0.751 | 0.687 | 0.566 | 0.569 | 0.585 | 0.588 | 0.564 | 0.491 | 0.574 | 0.587 | 0.488 | 0.624 | 0.557 | 0.563 | 0.546 | 0.584 |
| LK-2 | 0.642 | 0.509 | 0.527 | 0.317 | 0.508 | 0.186 | 0.156 | 0.165 | 0.181 | 0.171 | 0.2 | 0.237 | 0.253 | 0.299 | 0.3 | 0.322 | 0.339 | 0.343 | 0.162 |
| LC-2-ad | 0.82 | 0.75 | 0.796 | 0.822 | 0.795 | 0.424 | 0.442 | 0.459 | 0.424 | 0.405 | 0.606 | 0.372 | 0.148 | 0.889 | 1.08 | 0.722 | 0.813 | 0.722 | 0.384 |
| NCI-H596 | 0.978 | 1.1 | 1.04 | 1.1 | 1.09 | 0.996 | 0.849 | 0.869 | 0.954 | 0.849 | 0.927 | 0.728 | 0.581 | 0.987 | 0.901 | 0.921 | 1.12 | 1.03 | 0.579 |
| LCLC-97TM1 | 0.173 | 0.149 | 0.202 | 0.181 | 0.207 | 0.26 | 0.22 | 0.207 | 0.21 | 0.231 | 0.207 | 0.108 | 0.133 | 0.218 | 0.207 | – | 0.209 | 0.211 | 0.224 |
| SK-LU-1 | 1.14 | 1.14 | 0.951 | 1.05 | 0.878 | 0.331 | 0.365 | 0.322 | 0.305 | 0.287 | 0.301 | 0.293 | 0.238 | 0.545 | 0.539 | 0.559 | 0.638 | 0.657 | 0.302 |
| NCI-H1395 | 1.09 | 1.05 | 1.08 | 1.03 | 0.892 | 0.866 | 0.694 | 0.774 | 0.789 | 0.692 | 0.561 | 0.45 | 0.438 | 0.68 | 0.701 | 0.71 | 0.7 | 0.693 | 0.352 |
| COR-L23 | 0.88 | 0.849 | 0.824 | 0.993 | 0.902 | 0.18 | 0.179 | 0.188 | 0.164 | 0.176 | 0.556 | 0.179 | 0.145 | 0.447 | 0.361 | 0.465 | 0.455 | 0.443 | 0.578 |
| NCI-H2126 | 0.727 | 0.659 | 0.673 | 0.686 | 0.715 | 0.817 | 0.917 | 0.962 | 0.854 | 0.74 | 0.601 | 0.457 | 0.427 | 0.593 | 0.561 | 0.565 | 0.568 | 0.593 | – |
| EPLC-272H | 1.17 | – | 1.01 | 1.07 | 1.17 | 0.213 | 0.226 | 0.445 | 0.242 | 0.207 | 0.268 | 0.165 | 0.249 | 0.338 | 0.373 | 0.325 | 0.367 | 0.37 | 0.224 |
| NCI-H1793 | 0.915 | – | 0.775 | 0.858 | 0.782 | 0.333 | 0.321 | 0.344 | 0.324 | 0.281 | 0.251 | 0.255 | 0.198 | 0.486 | – | 0.51 | 0.379 | 0.543 | – |
| NCI-H2009 | 1.21 | 1.12 | 1.07 | 1.21 | 1.11 | 0.725 | 0.896 | 0.727 | 0.64 | 0.504 | 0.508 | 0.314 | 0.124 | 0.376 | 0.318 | 0.351 | 0.372 | 0.403 | 0.491 |
| NCI-H2347 | 0.884 | 0.855 | 0.958 | 0.977 | 0.895 | 0.448 | 0.449 | 0.523 | 0.535 | 0.501 | 0.375 | 0.337 | 0.386 | 0.548 | 0.608 | 0.571 | 0.54 | 0.685 | 0.27 |
| LU99A | 0.541 | 0.517 | 0.537 | 0.479 | 0.478 | 0.255 | 0.234 | 0.279 | 0.202 | 0.227 | 0.243 | 0.181 | 0.242 | 0.853 | 0.901 | 0.849 | 0.951 | 0.883 | 0.202 |
| NCI-H1915 | 1.12 | 1.07 | 1.09 | 1.08 | 1.15 | 0.435 | 0.516 | 0.38 | 0.469 | 0.4 | 0.295 | 0.216 | 0.346 | 0.255 | 0.239 | 0.255 | 0.266 | 0.264 | 0.303 |
| H3255 | 1.03 | 0.815 | 0.903 | 0.991 | 0.826 | 0.721 | 0.726 | 0.292 | 0.76 | 0.489 | 0.445 | 0.373 | 0.367 | 0.486 | – | 0.595 | 0.642 | 0.639 | 0.502 |
| BEN | 0.906 | 0.859 | 0.765 | 0.844 | 0.853 | 0.502 | 0.426 | 0.546 | 0.495 | 0.509 | 0.271 | 0.31 | 0.255 | 0.805 | 0.702 | 0.655 | 0.71 | 0.761 | 0.296 |
| NCI-H23 | 0.508 | 0.576 | 0.407 | 0.599 | 0.508 | 0.394 | 0.393 | 0.347 | 0.455 | 0.297 | 0.603 | 0.176 | 0.288 | 0.282 | 0.332 | 0.3 | – | 0.299 | 0.327 |
| NCI-H1944 | 1.2 | – | 1.12 | 1.23 | 1.37 | 0.251 | 0.27 | 0.257 | 0.251 | 0.23 | 0.349 | 0.165 | 0.161 | 0.42 | 0.388 | 0.44 | 0.456 | 0.458 | 0.22 |

Reference: the supplement of paper PMC10307832
